Measured values from publication PMC7234998, “Quantification of Colistin in Plasma by Liquid Chromatography-Tandem Mass Spectrometry: Application to a Pharmacokinetic Study” (Scientific Reports, 2020).
“Also recorded” adds a separate entry of the source. Where two headings read alike, the source gives them in different places. Positions of bridges follow the written chain, without caps; N, C: chain ends. Non-standard residues stand in square brackets, D forms with d. Residues, ends and D or L forms follow the SMILES beside them. *: point of attachment. Heptanoyl(6-Me) = CC(C)CCCCC(=O)*; X1 = CC[C@H](C)CCCCC(=O)*; Dab = NCC[C@H](N)C(=O)O

Experiments:
[1] = cited from earlier work
Text: Following the validation of the present analytical method, the method was applied to estimate the pharmacokinetic profile of colistin in experimental rats. Choosing the animal species to perform the pharmacokinetic study was based on the similarity of colistin pharmacokinetic profile between animal species and humans. […] The species that has the closest pharmacokinetic profile to humans are rats[43]–[45]. […] This is because of a distribution phase that occurs before the decline in the colistin concentration. This finding is in agreement with previous reports[43],[44],[49]. In the present study, we observed that colistin concentration declined rapidly over 180–240 min which is consistent with earlier findings[45],[49]. […] In the present study, the Vd of colistin was 2.45 ± 1.30 L/kg in ...

[2] = in vivo; details: male, Sprague Dawley, rat, iv, 15 mg/kg
Experimental: (§1) To 100 μl rat plasma sample, 5 μl of 500 μg/ml IS was added and followed by addition of 400 μl of 50:50 (v/v) methanol-TCA (10%). The samples were vortex-mixed for 1 min, rota-mixed for 10 min at 40 rpm and then centrifuged at 12,000 rpm for 10 min. Following centrifugation, 400 µl of the supernatant was collected and re-extracted with solid phase extraction (SPE) using SPE (Oasis HLB 1 cc, 30 mg) cartridges. First, the cartridges were conditioned with 500 μl of methanol then 500 μl of water. After that, 400 μl of the supernatant was transferred and then washed with 500 μl of water. The tubes were changed and then the samples were eluted with 150 μl of methanol: water: formic acid (80:19:1%, v/v/v) solution. The elution step was repeated twice, and then 250 μl of the solution was transferred to the low volume inserts and 20 μl of this solution was injected into the LC-MS system.
(§2) Male Sprague Dawley® (MSD) rats (21 weeks ± 3 days of age) with a body weight of 450–550 g [supplied by the Animal Resource Center (ARC), Health Sciences Center (HSC), Kuwait University] were used to estimate the pharmacokinetic profile of colistin. The animals (n = 8) were housed in 12 h/12 h light/dark cycle. […] All the animals were subjected to left jugular vein cannulation, IV drug administration, and subsequent blood sampling. All surgical procedures were carried out under strict aseptic conditions. In addition, all surgical instruments and materials were autoclaved, all solutions were sterile and the surgical procedure was performed with the aid of surgical microscope (Leica wild M690). Animal body temperatures were maintained around 37.6 °C (rectal) by placing the animals on an electronic heating pad throughout the surgical procedure as well as the post-surgical recovery period. About 350 µl of rat blood sample was collected from each animal. From this sample, 50 µl of blood sample was transferred to a capillary tube, sealed with the sealant clay at one end and centrifuged to calculate the Packed Cell Volume (PCV); i.e., Hematocrit. The remaining rat blood sample (300 µl) was centrifuged at 9000 X g for 10 min and aliquots of 100 µl of plasma sample was collected and stored at −70 °C pending analysis.
(§3) Colistin was quantified in the biological samples by the present LC-MS/MS method and then the pharmacokinetic parameters (t1/2, CL, Vd, AUC) were estimated by non-compartmental method employing Kinetica® software, version 5.1 (Thermo Fisher Scientific, Waltham, USA).

[3] = Autosampler stability of processed colistin rat plasma samples at 4 °C
Experimental: (§4) Colistin sulfate was prepared by dissolving 5.5 mg of the powder in 5 ml water to make a stock solution of 1 mg/ml of colistin. PMB sulfate solution of 1 mg/ml was also prepared by dissolving 5.8 mg of PMB sulfate powder in 5 ml water. Both solutions were stored at −70 °C. Calibration standards and quality controls were prepared by spiking different amounts of colistin sulfate stock solution in plasma. Aliquots of colistin sulfate were further diluted to provide standard concentrations of 0.5, 1, 2, 5, 10, 15, and 20 μg/mL (equivalent to: 78, 156, 312, 780, 1560, 2340 and 3120 ng/ml of colistin A and 353, 706, 1412, 3350, 7060, 10590 and 14120 ng/ml of colistin B) whereas, the concentrations of 1.5, 3.5, 7.5 and 17.5 μg/mL (which contained 234, 546, 1170 and 2730 ng/ml of colistin A and 1059, 2471, 5295 and 12355 ng/ml of colistin B) were considered as quality controls. The calibration standards and quality controls were aliquoted (150 μL) into 0.5 ml Eppendorf tubes and stored at −70 °C pending analysis.
as §1
(§5) Various types of stability tests including freeze-thaw stability and long-term stability were assessed. The freeze-thaw stability test was performed by removing the four QC samples out of the storage temperature (−70 °C) and keeping them at room temperature (25 °C) until thawing and then aliquots of the samples were analyzed. After that, the samples were again returned back for freezing in the same storage conditions for 12 to 24 h. The freeze-thaw cycles were repeated five times and 4 replicates of the analytes were assayed. In addition, a long-term stability test was performed to ensure that the stability of the samples for a time that exceeds the interval between the first sample collection and the last sample analysis. Four aliquots of low, medium and high concentrations (QC) were kept for 20 days in the same temperature used to store samples regularly at the lab (−70 °C) then analyzed and compared to the nominal concentration of freshly prepared QC samples. Moreover, the stability in the autosampler (4 °C) was assessed by keeping the processed samples under this condition and assayed periodically at different times for up to 24 hours. In addition, benchtop stability test was performed by keeping the samples at room temperature (25 °C) for six hours and analyzing them during this time. The mean value results of stability tests were calculated and compared to the nominal concentrations.

[4] = Long-term stability of colistin in rat plasma QC samples at −70 °C; details: rat plasma, 20 days, LC-MS/MS
Experimental: as §4, §1, §5

[5] = Freeze-thaw stability of colistin in rat plasma QC samples; details: five freeze-thaw cycles, −70 °C to room temperature
Experimental: as §4, §1, §5

[6] = Benchtop stability of colistin in rat plasma samples at room temperature; details: rat plasma, stored for 6 hours at room temperature (25 °C), LC-MS/MS
Experimental: as §4, §1, §5

[7] = cited from earlier work; remark: listed apart in the source
Experimental: However, colistin sulphate has been reported to be well absorbed after an oral administration in infants. […] The standards and quality control samples concentrations were selected based on the therapeutic range of colistin. The expected colistin serum levels according to the antimicrobial reference laboratory assay service are 5–15 mg/L and 2–4 mg/L for the peak and tough concentrations, respectively. […] Choosing the animal species to perform the pharmacokinetic study was based on the similarity of colistin pharmacokinetic profile between animal species and humans. […] The species that has the closest pharmacokinetic profile to humans are rats[43]–[45].

[8] = Pharmacokinetic study of colistin in rats after IV colistin sulfate, plasma LC-MS/MS, non-compartmental analysis; details: male, rat, 15 mg/kg, SD
Experimental: as §1, §2, §3

For `CC(C)CCCCC(=O)N[C@@H](CCN)C(=O)N[C@H](C(=O)N[C@@H](CCN)C(=O)N[C@H]1CCNC(=O)[C@H]([C@@H](C)O)NC(=O)[C@H](CCN)NC(=O)[C@H](CCN)NC(=O)[C@H](CC(C)C)NC(=O)[C@@H](CC(C)C)NC(=O)[C@H](CCN)NC1=O)[C@@H](C)O` [Colistin B, colistin B] ({Heptanoyl(6-Me)}-[Dab]T[Dab][Dab][Dab][dL]L[Dab][Dab]T; lactam 4-C), the “CL of the individual components” value ([1]; rat, in vivo) is given as 3.05 ± 0.62 mL/min/kg, the “t1/2 of the major components” value ([1]; rat, in vivo) is given as 1.52 ± 0.342 h and the level at 0.5 h [2] is given as 2640 ng/mL.
In the case of `CC[C@H](C)CCCCC(=O)N[C@@H](CCN)C(=O)N[C@H](C(=O)N[C@@H](CCN)C(=O)N[C@H]1CCNC(=O)[C@H]([C@@H](C)O)NC(=O)[C@H](CCN)NC(=O)[C@H](CCN)NC(=O)[C@H](CC(C)C)NC(=O)[C@@H](CC(C)C)NC(=O)[C@H](CCN)NC1=O)[C@@H](C)O` [colistin] (X1-[Dab]T[Dab][Dab][Dab][dL]L[Dab][Dab]T; lactam 4-C), the “deviation of result at each level from nominal concentration in the autosampler” value ([3]; autosampler environment, 4 °C) is reported as no more than 15%, the “autosampler stability (in words)” value ([3]; processed samples, autosampler 4 °C, up to 24 hours, LC-MS/MS) is reported as “stable; also recorded: acceptable” and the “long-term stability (in words)” value [4] is reported as “stable; also recorded: acceptable”. The “deviation of resulting concentrations from nominal after freeze-thaw” value ([5]; plasma samples) was no more than 15%, the “freeze-thaw stability (in words)” value ([5]; rat plasma, LC-MS/MS) was “stable; also recorded: acceptable” and the t1/2 ([1]; rats, another study) was 0.928 ± 0.322 h. For the same compound, the t1/2 ([1]; rats, dose ranging study, dose 15 mg/kg) was 0.54 ± 0.0833 h, the Vd ([1]; rats, earlier report) was 0.50 ± 0.06 L/kg and the “AUC0-∞” value ([1]; rats, mean ± S.D., other investigators, SD) was 2600 ± 470 ng·h/mL. The “total body clearance (CL)” value ([1]; rats, reported by other investigators) was 11.7 ± 1.8 mL/min/kg, the CLR ([1]; rats) was 5.2 ± 0.4 mL/min/kg and the Vd ([1]; rats) was 0.496 ± 0.06 L/kg. For the same compound, the t1/2 ([1]; rats) was 1.24 ± 0.22 h, the “benchtop (room temperature) stability (in words)” value [6] was “in-stability” and the “benchtop (room temperature) stability (in words)” value ([6]; listed as Colistin) was “not stable”. The minimum concentration ([7]; Markou and colleagues, steady state) was 1.03 ± 0.44 mg/L, the “maximum steady state concentration” value ([7]; Markou and colleagues) was 2.93 ± 1.24 mg/L and the elimination half-life ([7]; colistin, eliminated extra-renally) was 3 h. The Vd ([7]; humans) was 12.4 L, the t1/2 ([7]; humans) was 3 h and the clearance ([8]; Sprague Dawley (MSD)) was 25.5 ± 10.6 mL/min/kg. It also gave an AUC(0-inf) ([8]; Sprague Dawley) of 10500 ng·h/mL, a Vd ([8]; Sprague Dawley) of 2.45 ± 1.29 L/kg and a half-life ([8]; Sprague Dawley) of 1.07 ± 0.605 h.
